Measurements reported in paper PMC11157491, “Novel Alaninamide Derivatives with Drug-like Potential for Development as Antiseizure and Antinociceptive Therapies—In Vitro and In Vivo Characterization” (ACS Chemical Neuroscience, 2024).

Columns and labels:
PTZ-kindled mice = test: Behavioral tests in PTZ-kindled mice (locomotor activity, elevated plus maze, forced swim test); assay type: in vivo
Experimental: As compared to the nonkindled control group, there were no changes in locomotor activity, as well as anxiety- and depressive-like behavior in the PTZ-kindled control group.
The procedure was performed as described in detail in our earlier studies.[15],[65] […] The seizure severity was scored using the modified Racine’s scale. […] 24 h after the last PTZ injection, animals were subjected to the locomotor activity test, the elevated plus maze test, and the forced swim test according to the methods described in detail elsewhere. After behavioral tests, animals were sacrificed and the brains were rapidly removed. Hippocampi and cortices were dissected, frozen, and stored at −80 °C until the assay of determination of GABA and glutamate concentration.
Figure S1. Acute effects of compound 26 (A) and 28 (B) on grip strength in mice. Both compounds were administered i.p. at a dose of 50 mg/kg, 30 min before the test. Control animals received vehicle. Data are presented as means ± SEM of grip strength expressed in mN/g of body weight (n = 10animals). The statistical significance was evaluated by a Student's t test (GraphPad Prism 8). […]
entries in the elevated plus maze test; (B) the percentage of the time spent in the open arms in the elevated plus maze test; (C) spontaneous locomotor activity; (D) total immobility duration in the forced swim test in mice subjected to the PTZ kindling procedure. PTZ (40 mg/kg, i.p.) was given three times a week, 30 min after […]
Behavioral tests were performed 24 h after the last PTZ injection. Data are shown as means ± SEM (n = 10–15 animals). The statistical significance was evaluated by one-way ANOVA followed by the Tukey’s post hoc test: *p < 0.05, (GraphPad Prism 8). […]

mature BDNF (mBDNF) = test: mBDNF and proNGF expression in hippocampus and cortex of PTZ-kindled mice (western blot); assay type: in vivo; settings: PTZ-kindled animals, prolonged treatment
Experimental: In addition, we determined the expression of the nerve growth factor (NGF), which can also be implicated in kindling progression, by enhancing mossy fiber sprouting.[40] However, no changes in the NGF protein expression in the hippocampus and cortex of kindled animals were found (Figure 5C,D).
The expression of mBDNF and proNGF in the mouse hippocampus and cortex was evaluated by the western blot technique. Half of mouse brain structures, cortex and hippocampus, were weighted and homogenized at the ratio of 9 μL/mg in 2% sodium dodecyl sulfate (SDS) supplemented with a cocktail of protease (Thermo Scientific) and phosphatese inhibitors (Sigma-Aldrich) using a bead homogenizer (Bead Ruptor Elite, Omni International). Then, the samples were denatured at 95 °C for 10 min and centrifuged at 10,000g for 10 min at 4 °C. The total protein concentration in the obtained supernatants was determined using a PierceTM BCA Protein Assay Kit (Thermo Scientific, Waltham, MA). After setting the proper protein concentration, the samples were mixed with loading buffer (containing 10% 2-mercaptoethanol) at a ratio of 3:1 and heated for 10 min at 95 °C. Equal amounts of the protein (45 μg/lane) were loaded on Any kD precast polyacrylamide gels (Criterion, TGX Stain-Free gel, Bio-Rad, Hercules, CA) and subjected to electrophoresis (170 V, 60 min). Separated proteins were transferred to the polyvinylidene difluoride (PVDF) membrane (Bio-Rad, Hercules, CA) and were blocked in a 5% solution of albumin in TBST. […] The proteins were detected using the electrochemiluminescence (ECL) method (Western Bright Quantum, Advansta Inc., San Jose, CA). The chemiluminescence of the membranes was imaged with the G-Box Imaging System (Syngene, Frederick, MD), and the protein expression was analyzed with Gene Tools software (Syngene, Frederick, MD) and expressed as relative to the total protein content in the membrane lane.
Changes in the relative expression of tested proteins were analyzed using one-way ANOVA with Tukey’s post hoc test.

[1] = tested on: fast voltage-gated sodium channels in rat prefrontal cortex pyramidal neurons; test: Patch-clamp recording of fast sodium currents; assay type: cell-based; settings: control = 1.0
Experimental: Due to the relatively high concentration of compounds used in the in vitro assays, as well as brain concentration of 28 (>10 μM after 25 mg/kg dose administration) determined in the pharmacokinetic studies (see Section 2.10), it seems unlikely that compounds described herein act by any of mechanisms tested in the aforementioned binding and functional studies. […] Thus, in further in vitro assays, 28 was also evaluated for its influence on fast voltage-gated sodium channels in rat prefrontal cortex pyramidal neurons using the patch-clamp technique (maximal currents were evoked by rectangular voltage steps to −10 mV).
The averaged, maximal normalized amplitudes of voltage-gated sodium currents were 1.0 in control, 0.72 ± 0.06 after application of 28, and 0.86 ± 0.05 after wash-out (control vs 28p < 0.05).
Patch-clamp studies in prefrontal cortex pyramidal neurons. The methodology of slice preparation, preparation of dispersed cortical neurons, and sodium current recording technique were the same as in our previous study.[75]

locomotor activity and anxiety-related behavior (PTZ-kindled mice; repeated administration): did not affect
Compound: CC(=O)NC(C)C(=O)N1CCN(c2cccc(OC(F)(F)F)c2)CC1 (stereo not drawn) [Compound 28, N-(1-oxo-1-(4-(3-(Trifluoromethoxy)phenyl)piperazin-1-yl)propan-2-yl)acetamide]
decrease of total immobility duration in the forced swim test (PTZ-kindled mice; 10 and 20 mg/kg, vs PTZ-kindled control): ~10%
mBDNF expression in the cortex (mature BDNF (mBDNF)): decreased the expression of mBDNF
mBDNF expression in the hippocampus (mature BDNF (mBDNF)): not in the hippocampus
averaged maximal normalized amplitude of voltage-gated sodium currents ([1]; 10 μM, after application): 0.72 ± 0.06
averaged maximal normalized amplitude of voltage-gated sodium currents ([1]; after wash-out): 0.86 ± 0.05
